This passage reports IC50 results from BindingDB's records for patent US9487490 (Merck Sharp & Dohme Corp, 2016).

Structures are written as SMILES.

This assay addresses T1, Isoform 2 of Nuclear receptor ROR-gamma (RORgT) (Homo sapiens, UniProt P51449).
T1 sequence (P51449 whole entry): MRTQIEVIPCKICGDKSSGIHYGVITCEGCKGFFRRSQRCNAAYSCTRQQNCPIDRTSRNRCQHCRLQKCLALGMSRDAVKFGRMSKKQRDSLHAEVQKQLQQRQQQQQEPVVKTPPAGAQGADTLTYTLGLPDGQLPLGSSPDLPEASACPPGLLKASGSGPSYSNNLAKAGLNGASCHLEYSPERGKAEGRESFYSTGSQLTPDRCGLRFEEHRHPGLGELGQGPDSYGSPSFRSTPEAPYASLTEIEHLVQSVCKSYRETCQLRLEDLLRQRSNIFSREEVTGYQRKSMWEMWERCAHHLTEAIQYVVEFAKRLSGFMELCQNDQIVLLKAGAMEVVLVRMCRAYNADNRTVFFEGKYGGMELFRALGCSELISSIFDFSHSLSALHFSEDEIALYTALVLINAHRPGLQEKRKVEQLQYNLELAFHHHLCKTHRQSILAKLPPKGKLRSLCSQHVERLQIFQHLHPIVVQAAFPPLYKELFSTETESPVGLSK
The assay can be described thus: TR-FRET Assay. As to conditions: pH 7; 4 °C. As to the method:
To identify novel antagonists of RORgammaT, an assay was developed which employs the interaction of RORgammaT with its co-activator peptide SRC1_2. […] The RORγ-LBD protein was purified by glutathione sepharose chromatography. […] The mixture was then diluted in assay buffer (50 mM Tris pH 7.0, 50 mM KCl, 1 mM EDTA, 0.1 mM DTT) to obtain RORγ-LBD final concentration of 3 nM in 384-well assay plate. Compounds to be tested were injected to the assay plate using Acoustic Droplet Ejection technology by Echo 550 liquid handler (Labcyte, Calif.).
(In general: Time-resolved FRET reads energy transfer from a long-lived donor to a nearby acceptor.)

On to `CC1CC(c2nn(C(=O)c3c(Cl)cccc3C(F)(F)F)c3cccc(F)c23)=CC(O)C1C(=O)O` (stereo unspecified) [US9487490, 6C], for which half-maximal inhibition (IC50) required 5 nM.
